Measured values taken from the supplement of paper PMC11061612.

How the values were obtained:
[1] = test system: DMS-273 (Small Cell Lung Carcinoma); assay: combination Emax (second highest fraction inhibited in the dose matrix, 72 h); higher = more inhibition; extreme values may be limits of the assay
Summary of the method: (§1)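 Bliss excess equals the observed combination effect minus the expected value EA + EB − EA·EB, where EA and EB are the effects of each agent alone. Combination Emax is the second-highest inhibition within the matrix. Inhibition was scaled from CellTiter-Glo 2.0 luminescence, with 0 set by vehicle wells and 1 by blank wells, after 72 hours of two-drug dosing of cells plated in 1536-well plates.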

[2] = test system: SW1088 (Low Grade Glioma); assay: as above
Summary of the method: as §1

[3] = test system: IGR-1 (Melanoma); assay: as above
Summary of the method: as §1

[4] = test system: KARPAS-1106P (B-Cell Non-Hodgkin's Lymphoma); assay: as above
Summary of the method: as §1

[5] = test system: HCC2157 (Breast Carcinoma); assay: as above
Summary of the method: as §1

[6] = test system: NALM-6 (B-Lymphoblastic Leukemia); assay: as above
Summary of the method: as §1

[7] = test system: CTV-1 (T-Lymphoblastic Leukemia); assay: as above
Summary of the method: as §1

[8] = test system: NCI-H2595 (Mesothelioma); assay: as above
Summary of the method: as §1

[9] = test system: G-292-Clone-A141B1 (Osteosarcoma); assay: as above
Summary of the method: as §1

[10] = test system: TGBC24TKB (Biliary Tract Carcinoma); assay: Bliss excess, mean over the matrix (fraction); higher = more synergy
Summary of the method: as §1

[11] = test system: NCI-H1694 (Small Cell Lung Carcinoma); assay: as above
Summary of the method: as §1

[12] = test system: KM-H2 (Hodgkin's Lymphoma); assay: as above
Summary of the method: as §1

[13] = test system: SUIT-2 (Pancreatic Carcinoma); assay: as above
Summary of the method: as §1

[14] = test system: KARPAS-1106P (B-Cell Non-Hodgkin's Lymphoma); assay: as above
Summary of the method: as §1

[15] = test system: SW1990 (Pancreatic Carcinoma); assay: as above
Summary of the method: as §1

[16] = test system: RH-1 (Ewing's Sarcoma); assay: as above
Summary of the method: as §1

[17] = test system: CTV-1 (T-Lymphoblastic Leukemia); assay: as above
Summary of the method: as §1

[18] = test system: KATOIII (Gastric Carcinoma); assay: as above
Summary of the method: as §1

[19] = test system: NCI-H2595 (Mesothelioma); assay: as above
Summary of the method: as §1

[20] = test system: G-292-Clone-A141B1 (Osteosarcoma); assay: as above
Summary of the method: as §1

SMILES	combination Emax [1]	combination Emax [2]	combination Emax [3]	combination Emax [4]	combination Emax [5]	combination Emax [6]	combination Emax [7]	combination Emax [8]	combination Emax [9]	Bliss excess [10]	Bliss excess [11]	Bliss excess [12]	Bliss excess [13]	Bliss excess [14]	Bliss excess [15]	Bliss excess [16]	Bliss excess [17]	Bliss excess [18]	Bliss excess [19]	Bliss excess [20]
Cn1cnc2c(F)c(Nc3ccc(Br)cc3Cl)c(C(=O)NOCCO)cc21 [Selumetinib] + CCN(CCO)CCCOc1ccc2c(Nc3cc(CC(=O)Nc4cccc(F)c4)[nH]n3)ncnc2c1 [AZD2811] (first compound max 10 µM, 7x7, partner max 1 µM)	0.804	0.424	0.393	0.297	0.628	0.836	0.291	0.169	0.102	0.003	0.0136	-0.0193	-0.0526	0.0245	-0.0292	-0.0239	0.0436	-0.0148	-0.0185	-0.0367
CN(C)CCCOc1ccc(-c2ccc3ncc4c(c3c2)n(C2CCOCC2)c(=O)n4C)cn1 [AZD0156] + CCN(CCO)CCCOc1ccc2c(Nc3cc(CC(=O)Nc4cccc(F)c4)[nH]n3)ncnc2c1 [AZD2811] (first compound max 1 µM, 7x7, partner max 1 µM)	0.793	0.364	0.135	0.244	0.824	0.766	0.234	0.108	0.111	-0.0009	0.0516	0.0446	-0.0029	-0.0003	-0.0536	-0.0337	0.0458	-0.0366	-0.0334	-0.0669
Cc1nc(Nc2ncc(C(=O)Nc3c(C)cccc3Cl)s2)cc(N2CCN(CCO)CC2)n1 [Dasatinib] + CC(=O)Nc1cccc(-n2c(=O)n(C3CC3)c(=O)c3c(Nc4ccc(I)cc4F)n(C)c(=O)c(C)c32)c1 [Trametinib] (first compound max 2 µM, 7x7, partner max 1 µM)	0.323	0.666	0.351	0.741	0.423	0.621	1	0.265	0.722	0.106	-0.0311	-0.0367	0.0197	0.122	0.0235	-0.0353	0.0181	-0.0164	-0.0413	–
NC1(C(=O)N[C@@H](CCO)c2ccc(Cl)cc2)CCN(c2ncnc3[nH]ccc23)CC1 [Capivasertib] + CC(=O)c1c(C)c2cnc(Nc3ccc(N4CCNCC4)cn3)nc2n(C2CCCC2)c1=O [Palbociclib] (first compound max 10 µM, 7x7, partner max 10 µM)	0.817	0.654	0.831	0.761	1	0.858	0.897	0.214	0.333	-0.0216	-0.0472	0.0484	-0.0047	-0.0168	-0.0404	-0.0427	0.0198	-0.0242	-0.0248	0.0166
CC1(C)CCC(CN2CCN(c3ccc(C(=O)NS(=O)(=O)c4ccc(NCC5CCOCC5)c([N+](=O)[O-])c4)c(Oc4cnc5[nH]ccc5c4)c3)CC2)=C(c2ccc(Cl)cc2)C1 [Venetoclax] + COc1cc(Nc2ncc3c(n2)-c2ccc(Cl)cc2C(c2c(F)cccc2OC)=NC3)ccc1C(=O)O [Alisertib] (first compound max 1 µM, 7x7, partner max 10 µM)	0.767	0.679	0.403	0.713	0.877	0.977	0.976	0.211	0.484	0.0487	0.256	0.145	-0.0515	0.103	-0.074	-0.0065	-0.0095	-0.0587	-0.0543	-0.0793
CN(CCO)CC[C@H](CSc1ccccc1)Nc1ccc(S(=O)(=O)NC(=O)c2ccc(N3CCC([C@@H](O)c4ccccc4-c4ccc(Cl)cc4)CC3)cc2)cc1S(=O)(=O)C(F)(F)F [AZD4320] + C[C@@H]1COCCN1C2=NC(=NC(=C2)C3(CC3)[S@](=N)(=O)C)C4=C5C=CNC5=NC=C4 [AZD6738] (first compound max 1 µM, 7x7, partner max 10 µM)	0.813	0.586	0.969	0.849	0.979	1	0.822	0.214	0.754	-0.0245	0.0238	0.0381	-0.098	-0.0301	0.0112	0.0321	-0.0498	-0.0397	-0.0222	-0.0265
COc1nnc2ccc(N3CCC(c4ccc(OCCN5CCN(C)C(=O)[C@H]5C)cc4)CC3)nn12 [AZD5153] + C=CCn1c(=O)c2cnc(Nc3ccc(N4CCN(C)CC4)cc3)nc2n1-c1cccc(C(C)(C)O)n1 [AZD1775] (first compound max 1 µM, partner max 1 µM)	0.847	0.513	0.623	0.884	1	0.951	0.996	0.371	0.402	-0.0367	-0.0205	-0.101	0.0152	-0.0966	-0.0567	-0.0406	0.0151	-0.148	-0.0353	-0.0475
CC1(C)CCC(CN2CCN(c3ccc(C(=O)NS(=O)(=O)c4ccc(NCC5CCOCC5)c([N+](=O)[O-])c4)c(Oc4cnc5[nH]ccc5c4)c3)CC2)=C(c2ccc(Cl)cc2)C1 [Venetoclax] + C[C@@H](Nc1cc(F)cc(F)c1)c1cc(C(=O)N(C)C)cc2c(=O)cc(N3CCOCC3)oc12 [AZD8186] (first compound max 1 µM, 7x7, partner max 3 µM)	0.482	0.493	0.0327	0.796	0.919	0.866	0.372	0.163	0.296	-0.0202	0.0808	-0.0151	-0.0481	0.0046	-0.0255	-0.0429	0.0057	-0.0555	-0.0111	-0.0195
COc1nnc2ccc(N3CCC(c4ccc(OCCN5CCN(C)C(=O)[C@H]5C)cc4)CC3)nn12 [AZD5153] + CC1(C)CCC(CN2CCN(c3ccc(C(=O)NS(=O)(=O)c4ccc(NCC5CCOCC5)c([N+](=O)[O-])c4)c(Oc4cnc5[nH]ccc5c4)c3)CC2)=C(c2ccc(Cl)cc2)C1 [Venetoclax] (first compound max 1 µM, 7x7, partner max 1 µM)	0.749	0.471	0.433	0.761	1	0.993	0.963	0.375	0.256	-0.0456	0.0045	0.0245	-0.0769	-0.0308	-0.0448	-0.0391	-0.0322	-0.0861	0.0185	-0.0571
CC1(C)CCC(CN2CCN(c3ccc(C(=O)NS(=O)(=O)c4ccc(NCC5CCOCC5)c([N+](=O)[O-])c4)c(Oc4cnc5[nH]ccc5c4)c3)CC2)=C(c2ccc(Cl)cc2)C1 [Venetoclax] + Cn1cnc2c(F)c(Nc3ccc(Br)cc3Cl)c(C(=O)NOCCO)cc21 [Selumetinib] (first compound max 1 µM, 7x7, partner max 3 µM)	0.214	0.146	0.301	0.476	0.278	0.908	0.293	0.129	0.146	-0.0103	-0.0313	-0.0221	-0.0942	-0.0009	-0.0656	-0.0291	-0.0173	-0.0235	-0.047	-0.0441
COc1nnc2ccc(N3CCC(c4ccc(OCCN5CCN(C)C(=O)[C@H]5C)cc4)CC3)nn12 [AZD5153] + CN(CC[C@H](CSC1=CC=CC=C1)NC2=C(C=C(C=C2)S(=O)(=O)NC(=O)C3=CC=C(C=C3)N4CCC(CC4)[C@H](C5=CC=CC=C5C6=CC=C(C=C6)Cl)O)S(=O)(=O)C(F)(F)F)CCO [AZD4320] (first compound max 1 µM, 7x7, partner max 1 µM)	0.746	–	0.909	–	1	–	0.933	–	–	0.0326	0.0607	-0.0319	0.005	–	–	-0.0001	0.0057	–	–	–
CC(=O)c1c(C)c2cnc(Nc3ccc(N4CCNCC4)cn3)nc2n(C2CCCC2)c1=O [Palbociclib] + CN(CC[C@H](CSC1=CC=CC=C1)NC2=C(C=C(C=C2)S(=O)(=O)NC(=O)C3=CC=C(C=C3)N4CCC(CC4)[C@H](C5=CC=CC=C5C6=CC=C(C=C6)Cl)O)S(=O)(=O)C(F)(F)F)CCO [AZD4320] (first compound max 10 µM, 7x7, partner max 1 µM)	0.306	–	0.976	–	0.994	–	0.94	–	–	-0.0727	0.0632	-0.0282	-0.0937	–	–	-0.0674	-0.0365	–	–	–
C[C@@H](c1ccc2nccn2c1)n1nnc2ncc(-c3cnn(C)c3)nc21 [Savolitinib] + CN(CC[C@H](CSC1=CC=CC=C1)NC2=C(C=C(C=C2)S(=O)(=O)NC(=O)C3=CC=C(C=C3)N4CCC(CC4)[C@H](C5=CC=CC=C5C6=CC=C(C=C6)Cl)O)S(=O)(=O)C(F)(F)F)CCO [AZD4320] (first compound max 1 µM, 7x7, partner max 1 µM)	0.185	–	0.409	–	0.934	–	0.455	–	–	0.0233	-0.042	-0.0267	0.0046	–	–	0.0096	-0.0887	–	–	–
